Results published in publication PMC5263201, “GABAA receptor occupancy by subtype selective GABAAα2,3 modulators: PET studies in humans” (Psychopharmacology, 2016).
Values joined by “and” are separate entries in the source; they are usually repeats but may differ in a detail not shown here. Equal values may be shown once. Read-outs that look alike come from different tables or passages of the source.

Assays:
[1] = tested on: GABAA receptors (benzodiazepine binding site); assay: PET with [11C]flumazenil (HRRT): GABAA receptor occupancy; assay type: in vivo, human; details: for Occupancy (%) CER: cerebellum; for Occupancy (%) CER / Occupancy (%) OC / Occupancy (%) PUT / Occupancy (%) AMG: 1 h after drug administration; for Occupancy (%) OC: occipital cortex; for Occupancy (%) PUT: putamen; for Occupancy (%) AMG: amygdala
Description: Two separate open-label phase I PET studies were conducted in 2008–2009.
The initial study design included two sequential panels, with two subjects in each. The first panel was intended to obtain initial receptor occupancy values, to be used for dose selection in the second panel. […] The studies followed an adaptive design, i.e., doses and PET measurements were adjusted depending on the results of preceding measurements. […] To optimize quantification of the relationship between AZ6280 exposure and receptor occupancy, the number of subjects with the highest 40 mg dose was increased (Fig. 1).
The head of the subject was fixed using individual plaster helmet. A sterile physiological phosphate buffer (pH 7.4) solution containing [^11C]flumazenil was injected intravenously as a bolus during 2 s, immediately followed by flush with 10 ml saline. The injected radioactivity for [^11C]flumazenil was in the range of 330–350 MBq, (340 (9) MBq, mean, SD) in the study 1 and in the range of 317–363 MBq (335 (16) MBq) in the study 2. The specific radioactivity of the radioligand at time of injection ranged from 310 to 1465 GBq/μmol (730 (414) GBq/μmol, mean, SD) and from 464 to 1879 GBq/μmol (977 (424) GBq/μmol, mean, SD), for study 1 and study 2, respectively.
PET examinations were performed over 63 min (HRRT; Siemens/CTI). List mode data were reconstructed using the ordinary Poisson 3D ordered subset estimation maximization algorithm, with 10 iterations and 16 subsets including modeling of the point spread function (Varrone et al. [2009]) into a 4D PET image containing 33 consecutive time frames (9 × 10 s, 2 × 15 s, 3 × 20 s, 4 × 30 s, 4 × 60 s, 4 × 180 s, 7 × 360 s) with a 3D array of 256 × 256 × 207 voxels having a size of 1.22 × 1.22 × 1.22 mm.
The anatomical brain regions were delineated manually on the MR images using in-house image analysis software. The regions included cortical and striatal subregions, thalamus, cerebellum, limbic regions, pons, and whole brain. The following four regions were selected in the final analysis: The occipital cortex and cerebellum were chosen because of the highest GABAA receptor binding by [^11C]flumazenil and good imaging statistics and preferential distribution of α1/α2 receptor subtypes; the amygdala was chosen because of its role in the brain circuits involved in anxiety and putamen for preferential α1/α2/α3 versus α5 receptor subtypes (Lingford-Hughes et al. [2002]; Fatemi et al. [2013]; Waldvogel and Faull [2015]). For the pons, the ROI was drawn on horizontal projection on the six central slices. […] The concentration of radioactivity in each ROI, calculated for each sequential time frame and corrected for ^11C decay, was plotted versus time (TACs).
An index of neuronal GABAA receptor density or binding potential (BPND) was calculated using the simplified reference tissue model (Lammertsma and Hume [1996]) and pons as a reference region. The calculated receptor occupancy (%) was then correlated to drug exposure according to the following equation:1 Occupancy=Occmax×Cav,PET/Ki,plasma+Cav,PET
where Occmax is the maximal occupancy induced by drug, C av,PET is the total drug plasma concentration, and K i,plasma is the inhibition constant corresponding to the drug plasma concentration required for half-maximum receptor occupancy. Non-linear least squares curve fitting of the relationship between drug plasma concentration and receptor occupancy was performed using Matlab R2007b (http://de.mathworks.com). Regional data were fitted simultaneously to obtain a single estimate of K i,plasma and regionally different estimates of Occmax. Best fit estimate and confidence interval (95% CI) were obtained on the logarithmic scale.

[2] = Plasma pharmacokinetics after single oral doses in the PET studies; assay type: in vivo, human; details: for C av,PET: average plasma concentration at time of PET
Description: Venous blood samples for determination of drug plasma concentrations were collected at approximately 15 min before [^11C]flumazenil injection and at 15 and 30 min and 3, 4, 6, 8, 10, 12, 16, 24, 36, and 48 h after drug administration, including three samples during PET measurement, at 1, 1.30, and 2 h after drug administration.
Calculations of the pharmacokinetic parameters included the maximum plasma concentration (C max), the time to the maximum plasma concentration (T max), and the average drug plasma concentration during the PET measurement (C av,PET) (division of the partial area corresponding to the start and end times of PET assessment, AUCPET, by the duration of the PET measurement). The pharmacokinetic calculations were performed using non-compartmental analysis using WinNonlin™, Pharsight Corporation.

[3] = Safety and tolerability in the PET studies; assay type: in vivo, human
Source text: Safety and tolerability assessments included records of adverse events, vital signs (blood pressure, heart rate), Allen’s test, ECG, clinical chemistry, hematology assessments, and urinalysis.

human MT1 receptor = human MT1 receptor (Homo sapiens, UniProt P48039); assay: MT1 receptor GTPγS studies; assay type: biochemical
[4] = tested on: approximately 160 different ligand binding assays; assay: Battery of approximately 160 different ligand binding assays at 10 μM; details: active = ≥50% inhibition with an IC50 <1µM
[5] = Brain exposure in animals; assay type: in vivo
[6] = VAS alertness-sedation, Modified Wilson Sedation Scale, DSST; ref NCT00681317 and NCT00681915; cited from earlier work
[7] = parameters: method as in Chen et al. 2014, 2015; details: neurophysiological test battery; ref Chen et al. 2014, 2015; cited from earlier work
[8] = AZD7325 single oral dose 0.2 mg

Sequence of human MT1 receptor (P48039 whole entry): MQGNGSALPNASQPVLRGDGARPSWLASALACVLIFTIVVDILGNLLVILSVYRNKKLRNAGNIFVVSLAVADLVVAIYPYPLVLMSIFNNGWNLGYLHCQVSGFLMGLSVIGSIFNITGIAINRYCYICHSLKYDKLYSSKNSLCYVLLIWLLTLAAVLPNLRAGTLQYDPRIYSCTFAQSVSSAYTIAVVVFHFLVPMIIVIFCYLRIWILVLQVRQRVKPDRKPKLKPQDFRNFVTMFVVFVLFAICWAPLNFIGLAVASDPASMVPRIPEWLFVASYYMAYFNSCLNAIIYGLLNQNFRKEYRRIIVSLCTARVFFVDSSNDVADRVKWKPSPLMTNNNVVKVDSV

## CCCNC(=O)c1nnc2c(-c3c(F)cccc3OC)cccc2c1N [AZD7325]
[1]; 20–30 mg AZD7325, occipital cortex and cerebellum
  calculated GABAA receptor occupancy at the highest doses: over 80%
[1]; [8]
  Occupancy (%) CER: −5% and 3%
  Occupancy (%) OC: −8% and 0.5%
[1]; AZD7325 single oral dose 1 mg
  Occupancy (%) CER: 43% and 25%
[1]; AZD7325 single oral dose 2 mg
  Occupancy (%) CER: 45% and 60%
  Occupancy (%) OC: 24% and 42%
  Occupancy (%) PUT: 28% and 26%
[1]; AZD7325 single oral dose 5 mg
  Occupancy (%) AMG: 16% and 26%
  Occupancy (%) CER: 85% and 82%
  Occupancy (%) OC: 77% and 67%
  Occupancy (%) PUT: 40% and 37%
[1]; AZD7325 single oral dose 20 mg
  Occupancy (%) CER: 77% and 95%
  Occupancy (%) OC: 75% and 85%
  Occupancy (%) PUT: 41% and 46%
[1]; AZD7325 single oral dose 30 mg
  Occupancy (%) AMG: 37%
  Occupancy (%) CER: 89%
  Occupancy (%) OC: 82%
  Occupancy (%) PUT: 52%
[2]; [8]
  C av,PET: 1.74 nM and 2.93 nM
[2]; AZD7325 single oral dose 0.2 mg, individual subjects, read-out: C max
  Cmax: 4.12 nM
[2]; AZD7325 single oral dose 1 mg, individual subjects
  T max: 1.0 h
[2]; AZD7325 single oral dose 1 mg, individual subjects, read-out: C max
  Cmax: 5.19 nM and 12.8 nM
[2]; AZD7325 single oral dose 2 mg, individual subjects
  T max: 1.1 h
[2]; AZD7325 single oral dose 2 mg, individual subjects, read-out: C max
  Cmax: 5.19 nM and 21.4 nM
[2]; AZD7325 single oral dose 5 mg
  C av,PET: 46.28 nM and 39.22 nM
[2]; AZD7325 single oral dose 5 mg, individual subjects
  T max: 1.0 h
[2]; AZD7325 single oral dose 5 mg, individual subjects, read-out: C max
  Cmax: 44 nM
[2]; AZD7325 single oral dose 20 mg, individual subjects, read-out: C max
  Cmax: 302 nM
[2]; AZD7325 single oral dose 30 mg
  C av,PET: 265.25 nM
[2]; human, plasma, oral, range over all doses and subjects, read-out: range for peak exposures, Cmax
  Cmax: 0.81 to 109 ng/mL
[2]; human, plasma, po, 0.2 mg, AZD7325 single oral dose 0.2 mg, individual subjects
  Tmax: 0.5 h
[2]; human, plasma, po, 0.2 mg, AZD7325 single oral dose 0.2 mg, individual subjects, read-out: C max
  Cmax: 2.29 nM
[2]; human, plasma, po, 1 mg, AZD7325 single oral dose 1 mg, individual subjects
  Tmax: 1.8 h
[2]; human, plasma, po, 2 mg, AZD7325 single oral dose 2 mg, individual subjects
  Tmax: 1.3 h
[2]; human, plasma, po, 5 mg, AZD7325 single oral dose 5 mg, individual subjects, read-out: C max
  Cmax: 50.2 nM
[2]; human, plasma, po, 20 mg, AZD7325 single oral dose 20 mg, individual subjects
  Tmax: 3 h
[2]; human, plasma, po, 20 mg, AZD7325 single oral dose 20 mg, individual subjects, read-out: C max
  Cmax: 213 nM
[2]; human, plasma, po, 30 mg, AZD7325 single oral dose 30 mg, individual subject
  Tmax: 2.2 h
[2]; human, plasma, po, 30 mg, AZD7325 single oral dose 30 mg, individual subject, read-out: C max
  Cmax: 308 nM
[3]; AZD7325 5, 20 and 30 mg, AZD6280 20 mg and above
  receptor occupancy at the doses/exposure at which adverse events were reported: > 70%
[3]; PET studies
  high receptor occupancy reached without obvious sedative effects: > 70%
[3]; reported by three subjects at 20 and 30 mg and in one subject both at 20 and at 5 mg
  CNS-related AEs: dizziness, feeling hot, anhedonia, and hypoesthesia
Human MT1 receptor
  Emax: 90%
[4]
  activity in the battery of ligand binding assays: only assays in which either compound was active were the melatonin Type 1 and Type 2 receptors
[5]
  brain exposure: good brain exposure
[6]
  relationship between dose and alertness or cognitive performance: no significant relationship
[7]
  receptor occupancy up to which no cognitive or hypnotic side effects were observed: up to 80%
